Normal melting temperature data for 1 compound are collected here from the NIST ThermoML archive (doi:10.1021/je800742d).

Numbers after ± are expanded uncertainties.

The conditions of the data set: Crystal; visual observation.

Consider `CN1CCN(c2cc3c(cc2F)c(=O)c(C(=O)O)cn3-c2ccc(F)cc2)CC1` [difloxacin], for which the Normal melting temperature turned out to be 278.00 ± 0.5 °C.
